Counter-ions that a name gives are not always drawn.
Legend:
[1] = target: T1, recombinant human secreted phospholipase A2 (Homo sapiens, UniProt P14555); experiment: sPLA2 Chromogenic Assay (Assay 1); format: biochemical; settings: diheptanoyl thio-PC substrate, pH 7.5, 40° C. for 30 minutes, absorbance at 405 nanometers
T1 sequence (P14555 21-144): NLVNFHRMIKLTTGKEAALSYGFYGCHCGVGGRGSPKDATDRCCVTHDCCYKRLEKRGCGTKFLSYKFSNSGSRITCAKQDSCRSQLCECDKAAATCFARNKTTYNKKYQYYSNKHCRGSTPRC
Protocol: The following chromogenic assay procedure was used to identify and evaluate inhibitors of recombinant human secreted phospholipase A2. The assay described herein has been adapted for high volume screening using 96 well microtiter plates.
A measured volume of racemic dipheptanoyl thio PC supplied in chloroform at a concentration of 100 mg/ml is taken to dryness and redissolved in 10 millimolar TRITON X-100™ nonionic detergent aqueous solution. Reaction Buffer is added to the solution, then DTNB to give the Reaction Mixture.
The reaction mixture thus obtained contains 1 mM diheptanoyl thio-PC substrate, 0.29 mm Triton X-100™ detergent, and 0.12 mm DTMB in a buffered aqueous solution at pH 7.5.
1. Add 0.2 ml reaction mixture to all wells;
2. Add 10 ul test compound (or solvent blank) to appropriate wells, mix 20 seconds;
3. Add 50 nanograms of sPLA2 (10 microliters) to appropriate wells;
4. Incubate plate at 40° C. for 30 minutes;
All compounds were tested in triplicate. […] Each sample was titrated in triplicate and result values were averaged for plotting and calculation of IC50 values.

| SMILES | melting point | IC50 [1] [µM] |
| --- | --- | --- |
| CCCCCC1CCC(Cc2c(CC)c(C(=O)C(N)=O)c3c(OCC(=O)O)cccn23)CC1 (stereo not shown) (as salt: Na) [Compound 52o, 2-(8-(Carboxymethyloxy)-2-ethyl-3-(4-n-pentylcyclohexylmethyl)indolizin-1-yl)glyoxylamide] | 224 to 225 °C |  |
| CCc1c(CC(N)=O)c2c(OCC(=O)OC)cccn2c1Cc1ccccc1 [Compound 21v, Methyl (3-Benzyl-1-carbamoylmethyl-2-ethylindolizin-8-yloxy)acetate] | 159 to 163 °C |  |
| CCc1c(CC(N)=O)c2c(OCC(=O)OCc3ccccc3)cccn2c1Cc1cccc(Cl)c1 [Compound 21y, 2-(8-(Benzyloxycarbonylmethyloxy)-3-(m-chlorobenzyl)-2-ethylindolizin-1-yl)acetamide] | 157 to 158 °C | 0.35 |
| CCc1c(CC(N)=O)c2c(OCC(=O)O)cccn2c1-c1cccc2ccccc12 [Compound 22w, 2-(8-(Carboxymethyloxy)-2-ethyl-3-(1-naphthyl)indolizin-1-yl)acetamide] | 129 to 133 °C |  |
| Cc1c(C(=O)C(N)=O)c2ccccn2c1Cc1ccccc1 [Compound 34, (3-Benzyl-2-methylindolizin-1-yl)glyoxylamide] | 198 to 199 °C | 0.89 |
| CCc1c(C(=O)C(N)=O)c2c(OCc3ccccc3)cccn2c1Cc1ccccc1 [Compound 35a, (3-Benzyl-8-benzyloxy-2-ethylindolizin-1-yl)glyoxylamide] | 188 to 189 °C | 0.4 |
| Cc1c(C(=O)C(N)=O)c2c(OCc3ccccc3)cccn2c1Cc1ccccc1 [Compound 35g, (3-Benzyl-8-benzyloxy-2-methylindolizin-1-yl)glyoxylamide] | 212 to 214 °C | 0.047 |
| CCOC(=O)COc1cccn2c(Cc3ccccc3)c(CC)c(C(=O)C(N)=O)c12 [Compound 37a, (3-Benzyl-8-(carbethoxymethyloxy)-2-ethylindolizin-1-yl)glyoxylamide] | 191 to 192 °C | 0.044 |
| CCOC(=O)COc1cccn2c(Cc3ccccc3-c3ccccc3)c(CC)c(C(=O)C(N)=O)c12 [Compound 37d, (8-(Carbethoxymethyloxy)-2-ethyl-3-(o-phenylbenzyl)indolizin-1-yl)glyoxylamide] | 127 to 129 °C | 0.013 |
| CCOC(=O)COc1cccn2c(Cc3ccccc3)c(C)c(C(=O)C(N)=O)c12 [Compound 37g, (3-Benzyl-8-(carbethoxymethyloxy)-2-methylindolizin-1-yl)glyoxylamide] | 193 to 195 °C | 0.023 |
| CCOC(=O)COc1cccn2c(Cc3cccc(Cl)c3)c(CC)c(C(=O)C(N)=O)c12 [Compound 37h, (8-(Carbethoxymethyloxy)-3-(m-chlorobenzyl)-2-ethylindolizin-1-yl)glyoxylamide] | 172 to 175 °C |  |
| CCc1c(C(=O)C(N)=O)c2c(OCC(=O)OC(C)(C)C)cccn2c1Cc1ccccc1 [Compound 38a, (3-Benzyl-8-(t-butoxycarbonylmethyloxy)-2-ethylindolizin-1-yl)glyoxylamide] | 161 to 162 °C | 0.052 |
| CCc1c(C(=O)C(N)=O)c2c(OCC(=O)OC)cccn2c1Cc1cccc(C(F)(F)F)c1 [Compound 39i, (8-(Carbmethoxymethyloxy)-2-ethyl-3-(m-trifluoromethylbenzyl)indolizin-1-yl)glyoxylamide] | 136 to 137 °C |  |
| COC(=O)COc1cccn2c(Cc3ccccc3-c3ccccc3)c(C3CC3)c(C(=O)C(N)=O)c12 [Compound 39k, (8-(Carbmethoxymethyloxy)-2-cyclopropyl-3-(o-phenylbenzyl)indolizin-1-yl)glyoxylamide] | 178 to 179 °C |  |
| CCc1c(C(=O)C(=O)N(C)C)c2c(OCC(=O)O)cccn2c1Cc1ccccc1-c1ccccc1 [Compound 40f, (8-(Carboxymethyloxy)-2-ethyl-3-(o-phenylbenzyl)indolizin-1-yl)glyoxyl-N,N-dimethylamide] | 208 to 209 °C | > 50 |
| CCc1c(C(=O)C(N)=O)c2c(OCc3ccccc3)cccn2c1Cc1cccs1 [Compound 49k, 2-(8-Benzyloxy-2-ethyl-3-(thiophen-2-ylmethyl)indolizin-1-yl)glyoxylamide] | 191 to 192 °C | 0.79 |
| CCCCc1ccc(Cc2c(CC)c(C(=O)C(N)=O)c3c(OC)cccn23)cc1 [Compound 49s, 2-(3-(p-n-Butylbenzyl)-2-ethyl-8-methoxyindolizin-1-yl)glyoxylamide] | 195 to 196 °C | 0.36 |
| CCc1c(C(=O)C(N)=O)c2c(OCC(=O)OC)cccn2c1CC1CCCCC1 [Compound 51b, 2-(8-(Carbomethoxymethyloxy)-3-cyclohexylmethyl-2-ethylindolizin-1-yl)glyoxylamide] | 149 to 150 °C | 0.31 |
| CCc1c(C(=O)C(N)=O)c2c(OCC(=O)OC)cccn2c1CC1CCCC1 [Compound 51c, 2-(8-(Carbomethoxymethyloxy)-3-cyclopentylmethyl-2-ethylindolizin-1-yl)glyoxylamide] | 158 to 159 °C | 0.43 |

| SMILES | melting point | IC50 [1] [µM] |
| --- | --- | --- |
| CCc1c(C(=O)C(N)=O)c2c(OCC(=O)OC)cccn2c1CC1CCCCCC1 [Compound 51d, 2-(8-(Carbomethoxymethyloxy)-3-cycloheptylmethyl-2-ethylindolizin-1-yl)glyoxylamide] | 147 to 148 °C | 0.55 |
| CCCC(CCC)Cc1c(CC)c(C(=O)C(N)=O)c2c(OCC(=O)OC)cccn12 [Compound 51f, 2-(8-(Carbomethoxymethyloxy)-2-ethyl-3-(2-propylpentyl)indolizin-1-yl)glyoxylamide] | 114 to 115 °C | 0.59 |
| CCc1c(C(=O)C(N)=O)c2c(OCC(=O)OC)cccn2c1Cc1ccc2ccccc2c1 [Compound 51g, 2-(8-(Carbomethoxymethyloxy)-2-ethyl-3-(naphth-2-ylmethyl)indolizin-1-yl)glyoxylamide] | 195 to 196 °C | 0.17 |
| CCc1c(C(=O)C(N)=O)c2c(OCC(=O)OC)cccn2c1Cc1ccccc1Cc1ccccc1 [Compound 51j] | 190 to 191 °C | 0.02 |
| CCc1c(C(=O)C(N)=O)c2c(OCC(=O)OC)cccn2c1-c1cccs1 [Compound 51k] | 182 °C |  |
| CCc1c(C(=O)C(N)=O)c2c(OCC(=O)OC)cccn2c1Cc1sccc1-c1cccs1 [Compound 51l, 2-(8-(Carbomethoxymethyloxy)-2-ethyl-3-((3-thiophen-2-yl)thiophen-2-ylmethyl)indolizin-1-yl)glyoxylamide] | 176 to 177 °C | 0.096 |
| CCc1c(C(=O)C(N)=O)c2c(OCC(=O)OC)cccn2c1Cc1cccc(OC)c1 [Compound 51m, 2-(2-Ethyl-8-(carbomethoxymethyloxy)-3-(m-methoxybenzyl)indolizine-1-yl)glyoxylamide] | 155 to 157 °C | 0.31 |
| CCc1c(C(=O)C(N)=O)c2c(OCC(=O)OC)cccn2c1Cc1ccccc1[N+](=O)[O-] [Compound 51n, 2-(2-Ethyl-8-(carbomethoxymethyloxy)-3-(o-nitrobenzyl)indolizine-1-yl)glyoxylamide] | 156 to 157 °C |  |
| COC(=O)COc1cccn2c(CC34CC5CC(CC(C5)C3)C4)c(C)c(C(=O)C(N)=O)c12 [Compound 51p, 2-(3-(Adamant-1-ylmethyl)-8-(carbomethoxymethyloxy)-2-methylindolizin-1-yl)glyoxylamide] | 191 to 192 °C |  |
| COC(=O)COc1cccn2c(Cc3ccccc3)c(C3CC3)c(C(=O)C(N)=O)c12 [Compound 51r, 2-(3-Benzyl-8-carbomethoxymethyloxy-2-cyclopropylindolizin-1-yl)-glyoxylamide] | 186 to 188 °C |  |
| CCCCc1ccc(Cc2c(CC)c(C(=O)C(N)=O)c3c(OCC(=O)OC)cccn23)cc1 [Compound 51s, 2-(3-(p-n-Butylbenzyl)-8-(carbomethoxymethyloxy)-2-ethylindolizin-1-yl)glyoxylamide] | 174 to 176 °C | 0.15 |
| COC(=O)COc1cccn2c(CC3CCCCC3)c(C)c(C(=O)C(N)=O)c12 [Compound 51t] | 177 to 178 °C | 0.13 |
| NC(=O)C(=O)c1c(C2CC2)c(Cc2ccccc2-c2ccccc2)n2ccc(OCCCC(=O)O)cc12 [Compound 67b, 2-(7-(3-Carboxypropyloxy)-2-cyclopropyl-3-(o-phenylbenzyl)indolizin-1-yl)glyoxylamide] | 112 to 121 °C (dec.) |  |
| CCOC(=O)COc1ccn2c(Cc3ccccc3-c3ccccc3)c(CC)c(C(=O)C(N)=O)c2c1 [Compound 68b, 2-(7-(Carboethoxymethyloxy)-2-ethyl-3-(o-phenylbenzyl)indolizin-1-yl)glyoxylamide] | 119 to 121 °C |  |
| CCc1c(CC(N)=O)c2cc(OCCCC(=O)O)ccn2c1Cc1ccccc1-c1ccccc1 [Compound 71b, 2-(7-(3-Carboxypropyloxy)-2-ethyl-3-(o-phenylbenzyl)indolizin-1-yl)acetamide] | 105 to 120 °C (dec.) |  |
| COC(=O)CNc1cccn2c(Cc3ccccc3)c(C)c(C(=O)C(N)=O)c12 [Compound 89a, 2-(3-Benzyl-8-methoxycarbonylmethylamino-2-methyl-indolizin-1-yl)-glyoxylamide] | 293 °C (dec.) |  |
| COC(=O)CNc1cccn2c(CC3CCCCC3)c(C)c(C(=O)C(N)=O)c12 [Compound 89b, 2-(8-methoxycarbonylmethylamino-3-cyclohexylmethyl-2-methyl-indolizin-1-yl)-glyoxylamide] | 173 to 177 °C |  |
| Cc1c(C(=O)C(N)=O)c2c(NCC(=O)O)cccn2c1CC1CCCCC1 [Compound 90b, 2-(8-Carboxymethylamino-3-cyclohexylmethyl-2-methyl-indolizin-1-yl)-glyoxylamide] | > 300 °C |  |
